Assay results from ChEMBL document CHEMBL5442219.

Experiments:
Details in all cases: Compound concentration 10 µM
[1] = target: 5-hydroxytryptamine receptor 2A (Homo sapiens) (UniProt P28223)
Description: PDSP Primary Binding target: HTR2A - Compounds are tested at 10 uM concentration, plate are incubated at room temperature in the dark for 90 minutes. Reaction are stopped by vacuum filtration onto 0.3% polyethyleneimine soaked filter mats using Filtermate harvester. Scintilation cocktail is then melted onto microwave-dried filters on a hot plate and the radio activity is counted in Microbia counter.

[2] = target: D(1A) dopamine receptor (Homo sapiens) (UniProt P21728)
Description: PDSP Primary Binding target: DRD1 - Compounds are tested at 10 uM concentration, plate are incubated at room temperature in the dark for 90 minutes. Reaction are stopped by vacuum filtration onto 0.3% polyethyleneimine soaked filter mats using Filtermate harvester. Scintilation cocktail is then melted onto microwave-dried filters on a hot plate and the radio activity is counted in Microbia counter.

[3] = target: D(3) dopamine receptor (Homo sapiens) (UniProt P35462)
Description: PDSP Primary Binding target: DRD3 - Compounds are tested at 10 uM concentration, plate are incubated at room temperature in the dark for 90 minutes. Reaction are stopped by vacuum filtration onto 0.3% polyethyleneimine soaked filter mats using Filtermate harvester. Scintilation cocktail is then melted onto microwave-dried filters on a hot plate and the radio activity is counted in Microbia counter.

[4] = target: Sodium-dependent serotonin transporter (Homo sapiens) (UniProt P31645)
Description: PDSP Primary Binding target: SLC6A4 - Compounds are tested at 10 uM concentration, plate are incubated at room temperature in the dark for 90 minutes. Reaction are stopped by vacuum filtration onto 0.3% polyethyleneimine soaked filter mats using Filtermate harvester. Scintilation cocktail is then melted onto microwave-dried filters on a hot plate and the radio activity is counted in Microbia counter.

[5] = target: T1, 5-hydroxytryptamine receptor 1A (Homo sapiens) (UniProt P08908)
T1 sequence (whole entry): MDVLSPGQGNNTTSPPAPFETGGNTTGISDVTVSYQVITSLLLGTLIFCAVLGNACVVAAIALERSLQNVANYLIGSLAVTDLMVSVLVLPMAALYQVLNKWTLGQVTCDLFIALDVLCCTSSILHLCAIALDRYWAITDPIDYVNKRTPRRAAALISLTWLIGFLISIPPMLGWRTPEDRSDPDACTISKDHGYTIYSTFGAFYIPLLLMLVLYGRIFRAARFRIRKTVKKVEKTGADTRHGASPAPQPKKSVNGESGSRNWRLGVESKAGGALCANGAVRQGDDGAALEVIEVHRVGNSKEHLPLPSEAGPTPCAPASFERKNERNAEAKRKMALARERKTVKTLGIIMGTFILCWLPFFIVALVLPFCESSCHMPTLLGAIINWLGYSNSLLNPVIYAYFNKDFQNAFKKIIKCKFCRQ
Description: PDSP Primary Binding target: HTR1A - Compounds are tested at 10 uM concentration, plate are incubated at room temperature in the dark for 90 minutes. Reaction are stopped by vacuum filtration onto 0.3% polyethyleneimine soaked filter mats using Filtermate harvester. Scintilation cocktail is then melted onto microwave-dried filters on a hot plate and the radio activity is counted in Microbia counter.

[6] = target: D(2) dopamine receptor (Homo sapiens) (UniProt P14416)
Sequence of D(2) dopamine receptor (Homo sapiens) (P14416 whole entry): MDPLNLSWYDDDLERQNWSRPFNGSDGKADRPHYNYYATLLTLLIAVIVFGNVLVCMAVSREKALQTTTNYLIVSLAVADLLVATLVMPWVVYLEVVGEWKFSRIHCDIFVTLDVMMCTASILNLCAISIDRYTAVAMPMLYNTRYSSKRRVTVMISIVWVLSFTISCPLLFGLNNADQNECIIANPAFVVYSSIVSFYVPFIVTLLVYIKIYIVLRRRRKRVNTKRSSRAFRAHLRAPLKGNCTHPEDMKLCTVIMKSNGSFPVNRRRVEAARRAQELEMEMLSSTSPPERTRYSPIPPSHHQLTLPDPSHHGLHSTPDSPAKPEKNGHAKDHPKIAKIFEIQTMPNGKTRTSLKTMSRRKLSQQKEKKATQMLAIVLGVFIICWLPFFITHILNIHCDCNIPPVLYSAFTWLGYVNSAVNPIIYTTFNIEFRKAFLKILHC
Description: PDSP Primary Binding target: DRD2 - Compounds are tested at 10 uM concentration, plate are incubated at room temperature in the dark for 90 minutes. Reaction are stopped by vacuum filtration onto 0.3% polyethyleneimine soaked filter mats using Filtermate harvester. Scintilation cocktail is then melted onto microwave-dried filters on a hot plate and the radio activity is counted in Microbia counter.

[7] = target: Sigma non-opioid intracellular receptor 1 (Homo sapiens) (UniProt Q99720)
Sequence of Sigma non-opioid intracellular receptor 1 (Homo sapiens) (Q99720 whole entry): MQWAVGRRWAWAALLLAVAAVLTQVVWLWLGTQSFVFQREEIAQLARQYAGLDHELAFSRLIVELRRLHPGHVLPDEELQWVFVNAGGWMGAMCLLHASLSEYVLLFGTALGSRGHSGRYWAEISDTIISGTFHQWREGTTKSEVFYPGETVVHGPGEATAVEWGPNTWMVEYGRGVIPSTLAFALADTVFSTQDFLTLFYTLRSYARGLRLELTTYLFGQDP
Description: PDSP Primary Binding target: SIGMAR1 - Compounds are tested at 10 uM concentration, plate are incubated at room temperature in the dark for 90 minutes. Reaction are stopped by vacuum filtration onto 0.3% polyethyleneimine soaked filter mats using Filtermate harvester. Scintilation cocktail is then melted onto microwave-dried filters on a hot plate and the radio activity is counted in Microbia counter.

[8] = target: 5-hydroxytryptamine receptor 1B (Homo sapiens) (UniProt P28222)
Sequence of 5-hydroxytryptamine receptor 1B (Homo sapiens) (P28222 whole entry): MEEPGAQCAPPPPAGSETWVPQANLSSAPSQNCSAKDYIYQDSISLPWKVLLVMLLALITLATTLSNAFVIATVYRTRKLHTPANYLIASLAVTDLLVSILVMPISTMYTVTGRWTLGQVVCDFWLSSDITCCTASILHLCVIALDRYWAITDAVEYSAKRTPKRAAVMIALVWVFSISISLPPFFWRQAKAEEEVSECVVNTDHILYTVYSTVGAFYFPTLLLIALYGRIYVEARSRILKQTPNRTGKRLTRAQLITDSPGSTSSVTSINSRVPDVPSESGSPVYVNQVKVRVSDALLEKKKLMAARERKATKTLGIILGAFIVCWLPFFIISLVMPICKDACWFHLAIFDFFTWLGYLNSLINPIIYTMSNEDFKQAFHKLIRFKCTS
Description: PDSP Primary Binding target: HTR1B - Compounds are tested at 10 uM concentration, plate are incubated at room temperature in the dark for 90 minutes. Reaction are stopped by vacuum filtration onto 0.3% polyethyleneimine soaked filter mats using Filtermate harvester. Scintilation cocktail is then melted onto microwave-dried filters on a hot plate and the radio activity is counted in Microbia counter.

[9] = target: 5-hydroxytryptamine receptor 1E (Homo sapiens) (UniProt P28566)
Sequence of 5-hydroxytryptamine receptor 1E (Homo sapiens) (P28566 whole entry): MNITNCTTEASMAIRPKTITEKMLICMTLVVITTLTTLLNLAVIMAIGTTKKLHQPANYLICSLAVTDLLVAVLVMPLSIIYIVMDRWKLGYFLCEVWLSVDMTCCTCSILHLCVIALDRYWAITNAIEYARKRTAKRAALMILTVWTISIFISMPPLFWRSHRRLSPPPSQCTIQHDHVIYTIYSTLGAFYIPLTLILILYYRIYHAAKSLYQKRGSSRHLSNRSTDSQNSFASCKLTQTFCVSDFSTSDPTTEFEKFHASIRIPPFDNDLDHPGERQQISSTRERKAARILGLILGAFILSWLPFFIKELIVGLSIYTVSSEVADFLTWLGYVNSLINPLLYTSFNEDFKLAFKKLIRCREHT
Description: PDSP Primary Binding target: HTR1E - Compounds are tested at 10 uM concentration, plate are incubated at room temperature in the dark for 90 minutes. Reaction are stopped by vacuum filtration onto 0.3% polyethyleneimine soaked filter mats using Filtermate harvester. Scintilation cocktail is then melted onto microwave-dried filters on a hot plate and the radio activity is counted in Microbia counter.

[10] = target: Histamine H3 receptor (Homo sapiens) (UniProt Q9Y5N1)
Sequence of Histamine H3 receptor (Homo sapiens) (Q9Y5N1 whole entry): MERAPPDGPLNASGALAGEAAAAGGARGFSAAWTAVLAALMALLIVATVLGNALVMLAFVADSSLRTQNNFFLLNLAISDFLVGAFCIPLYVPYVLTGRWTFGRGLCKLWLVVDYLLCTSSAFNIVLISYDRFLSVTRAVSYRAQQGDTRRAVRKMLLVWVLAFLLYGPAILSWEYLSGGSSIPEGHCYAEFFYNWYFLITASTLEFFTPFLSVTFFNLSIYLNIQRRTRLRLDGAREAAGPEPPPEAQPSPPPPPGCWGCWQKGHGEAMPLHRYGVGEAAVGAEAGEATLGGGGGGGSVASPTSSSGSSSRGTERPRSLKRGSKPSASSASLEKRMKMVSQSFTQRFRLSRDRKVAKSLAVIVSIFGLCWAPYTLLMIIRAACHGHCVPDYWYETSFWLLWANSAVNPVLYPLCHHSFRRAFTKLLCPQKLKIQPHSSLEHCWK
Description: PDSP Primary Binding target: HRH3 - Compounds are tested at 10 uM concentration, plate are incubated at room temperature in the dark for 90 minutes. Reaction are stopped by vacuum filtration onto 0.3% polyethyleneimine soaked filter mats using Filtermate harvester. Scintilation cocktail is then melted onto microwave-dried filters on a hot plate and the radio activity is counted in Microbia counter.

[11] = target: T2, 5-hydroxytryptamine receptor 2C (Homo sapiens) (UniProt P28335)
T2 sequence (whole entry): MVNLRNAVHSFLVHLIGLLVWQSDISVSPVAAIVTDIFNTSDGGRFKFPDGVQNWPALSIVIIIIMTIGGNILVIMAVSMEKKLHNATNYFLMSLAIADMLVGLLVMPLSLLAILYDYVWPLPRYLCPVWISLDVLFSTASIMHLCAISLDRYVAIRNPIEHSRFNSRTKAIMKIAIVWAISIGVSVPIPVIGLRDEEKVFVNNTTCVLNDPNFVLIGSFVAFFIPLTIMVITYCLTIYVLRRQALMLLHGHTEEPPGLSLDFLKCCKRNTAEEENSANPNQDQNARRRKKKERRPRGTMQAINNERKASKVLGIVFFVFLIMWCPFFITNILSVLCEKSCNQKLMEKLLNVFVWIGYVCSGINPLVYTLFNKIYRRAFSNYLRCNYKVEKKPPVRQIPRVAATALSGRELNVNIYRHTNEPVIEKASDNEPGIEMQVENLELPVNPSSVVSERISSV
Description: PDSP Primary Binding target: HTR2C - Compounds are tested at 10 uM concentration, plate are incubated at room temperature in the dark for 90 minutes. Reaction are stopped by vacuum filtration onto 0.3% polyethyleneimine soaked filter mats using Filtermate harvester. Scintilation cocktail is then melted onto microwave-dried filters on a hot plate and the radio activity is counted in Microbia counter.

[12] = target: Mu-type opioid receptor (Homo sapiens) (UniProt P35372)
Description: PDSP Primary Binding target: OPRM1 - Compounds are tested at 10 uM concentration, plate are incubated at room temperature in the dark for 90 minutes. Reaction are stopped by vacuum filtration onto 0.3% polyethyleneimine soaked filter mats using Filtermate harvester. Scintilation cocktail is then melted onto microwave-dried filters on a hot plate and the radio activity is counted in Microbia counter.

[13] = target: Sodium-dependent dopamine transporter (Homo sapiens) (UniProt Q01959)
Sequence of Sodium-dependent dopamine transporter (Homo sapiens) (Q01959 whole entry): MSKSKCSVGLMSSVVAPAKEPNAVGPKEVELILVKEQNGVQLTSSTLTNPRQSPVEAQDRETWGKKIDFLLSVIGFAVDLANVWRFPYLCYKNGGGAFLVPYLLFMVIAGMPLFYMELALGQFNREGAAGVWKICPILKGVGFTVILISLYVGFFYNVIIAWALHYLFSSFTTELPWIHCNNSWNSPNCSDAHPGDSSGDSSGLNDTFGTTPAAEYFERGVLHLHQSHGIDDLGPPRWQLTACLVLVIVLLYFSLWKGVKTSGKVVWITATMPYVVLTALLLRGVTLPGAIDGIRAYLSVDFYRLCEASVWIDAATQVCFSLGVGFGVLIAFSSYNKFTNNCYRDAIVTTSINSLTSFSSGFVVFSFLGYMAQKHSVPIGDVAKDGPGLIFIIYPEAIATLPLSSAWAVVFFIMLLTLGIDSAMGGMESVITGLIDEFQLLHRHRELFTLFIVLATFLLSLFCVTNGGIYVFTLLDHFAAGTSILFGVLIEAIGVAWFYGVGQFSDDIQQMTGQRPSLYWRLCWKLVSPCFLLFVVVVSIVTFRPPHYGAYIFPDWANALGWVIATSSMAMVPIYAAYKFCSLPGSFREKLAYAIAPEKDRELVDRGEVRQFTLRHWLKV
Description: PDSP Primary Binding target: SLC6A3 - Compounds are tested at 10 uM concentration, plate are incubated at room temperature in the dark for 90 minutes. Reaction are stopped by vacuum filtration onto 0.3% polyethyleneimine soaked filter mats using Filtermate harvester. Scintilation cocktail is then melted onto microwave-dried filters on a hot plate and the radio activity is counted in Microbia counter.

[14] = target: 5-hydroxytryptamine receptor 1D (Homo sapiens) (UniProt P28221)
Sequence of 5-hydroxytryptamine receptor 1D (Homo sapiens) (P28221 whole entry): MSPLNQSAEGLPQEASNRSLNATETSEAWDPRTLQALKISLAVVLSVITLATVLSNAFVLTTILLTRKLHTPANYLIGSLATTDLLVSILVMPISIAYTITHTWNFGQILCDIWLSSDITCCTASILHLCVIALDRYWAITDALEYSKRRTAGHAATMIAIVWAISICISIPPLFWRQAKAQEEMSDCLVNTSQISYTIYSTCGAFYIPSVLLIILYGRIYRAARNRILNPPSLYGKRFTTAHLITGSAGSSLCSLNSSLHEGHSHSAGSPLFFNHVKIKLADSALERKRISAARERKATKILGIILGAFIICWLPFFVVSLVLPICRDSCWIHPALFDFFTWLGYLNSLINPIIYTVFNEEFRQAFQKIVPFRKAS
Description: PDSP Primary Binding target: HTR1D - Compounds are tested at 10 uM concentration, plate are incubated at room temperature in the dark for 90 minutes. Reaction are stopped by vacuum filtration onto 0.3% polyethyleneimine soaked filter mats using Filtermate harvester. Scintilation cocktail is then melted onto microwave-dried filters on a hot plate and the radio activity is counted in Microbia counter.

[15] = target: 5-hydroxytryptamine receptor 2B (Homo sapiens) (UniProt P41595)
Sequence of 5-hydroxytryptamine receptor 2B (Homo sapiens) (P41595 whole entry): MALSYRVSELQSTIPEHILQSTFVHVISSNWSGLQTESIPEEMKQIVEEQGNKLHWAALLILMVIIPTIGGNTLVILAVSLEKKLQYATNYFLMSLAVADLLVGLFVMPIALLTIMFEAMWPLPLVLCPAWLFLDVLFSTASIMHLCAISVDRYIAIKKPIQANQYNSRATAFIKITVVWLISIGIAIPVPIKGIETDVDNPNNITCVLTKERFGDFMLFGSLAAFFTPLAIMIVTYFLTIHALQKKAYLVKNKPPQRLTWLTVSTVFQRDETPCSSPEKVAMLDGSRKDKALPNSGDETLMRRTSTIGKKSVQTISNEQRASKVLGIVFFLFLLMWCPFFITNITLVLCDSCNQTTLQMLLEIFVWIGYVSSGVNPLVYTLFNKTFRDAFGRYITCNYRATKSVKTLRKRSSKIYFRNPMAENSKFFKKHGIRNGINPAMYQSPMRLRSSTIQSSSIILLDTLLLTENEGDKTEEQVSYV
Description: PDSP Primary Binding target: HTR2B - Compounds are tested at 10 uM concentration, plate are incubated at room temperature in the dark for 90 minutes. Reaction are stopped by vacuum filtration onto 0.3% polyethyleneimine soaked filter mats using Filtermate harvester. Scintilation cocktail is then melted onto microwave-dried filters on a hot plate and the radio activity is counted in Microbia counter.

[16] = target: T3, Alpha-1A adrenergic receptor (Homo sapiens) (UniProt P35348)
T3 sequence (whole entry): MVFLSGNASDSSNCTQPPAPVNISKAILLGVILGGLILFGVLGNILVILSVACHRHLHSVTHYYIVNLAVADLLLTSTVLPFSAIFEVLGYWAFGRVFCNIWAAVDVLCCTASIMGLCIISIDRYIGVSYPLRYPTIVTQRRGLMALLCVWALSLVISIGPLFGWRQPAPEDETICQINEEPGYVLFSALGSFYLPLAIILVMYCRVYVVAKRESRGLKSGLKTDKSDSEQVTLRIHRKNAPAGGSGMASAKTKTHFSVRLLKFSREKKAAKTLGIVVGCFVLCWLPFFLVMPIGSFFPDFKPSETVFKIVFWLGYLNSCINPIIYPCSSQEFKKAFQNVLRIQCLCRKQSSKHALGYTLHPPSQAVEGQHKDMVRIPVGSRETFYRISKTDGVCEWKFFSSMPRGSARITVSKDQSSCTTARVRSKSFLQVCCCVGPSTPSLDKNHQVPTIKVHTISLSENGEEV
Description: PDSP Primary Binding target: ADRA1A - Compounds are tested at 10 uM concentration, plate are incubated at room temperature in the dark for 90 minutes. Reaction are stopped by vacuum filtration onto 0.3% polyethyleneimine soaked filter mats using Filtermate harvester. Scintilation cocktail is then melted onto microwave-dried filters on a hot plate and the radio activity is counted in Microbia counter.

[17] = target: Sigma intracellular receptor 2 (Homo sapiens) (UniProt Q5BJF2)
Sequence of Sigma intracellular receptor 2 (Homo sapiens) (Q5BJF2 whole entry): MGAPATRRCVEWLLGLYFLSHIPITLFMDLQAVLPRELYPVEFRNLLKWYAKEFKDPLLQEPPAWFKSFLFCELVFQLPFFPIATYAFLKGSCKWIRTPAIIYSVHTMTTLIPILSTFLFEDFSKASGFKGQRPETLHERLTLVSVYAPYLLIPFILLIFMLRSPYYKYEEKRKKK
Description: PDSP Primary Binding target: TMEM97 - Compounds are tested at 10 uM concentration, plate are incubated at room temperature in the dark for 90 minutes. Reaction are stopped by vacuum filtration onto 0.3% polyethyleneimine soaked filter mats using Filtermate harvester. Scintilation cocktail is then melted onto microwave-dried filters on a hot plate and the radio activity is counted in Microbia counter.

[18] = target: T4, Muscarinic acetylcholine receptor M1 (Homo sapiens) (UniProt P11229)
T4 sequence (whole entry): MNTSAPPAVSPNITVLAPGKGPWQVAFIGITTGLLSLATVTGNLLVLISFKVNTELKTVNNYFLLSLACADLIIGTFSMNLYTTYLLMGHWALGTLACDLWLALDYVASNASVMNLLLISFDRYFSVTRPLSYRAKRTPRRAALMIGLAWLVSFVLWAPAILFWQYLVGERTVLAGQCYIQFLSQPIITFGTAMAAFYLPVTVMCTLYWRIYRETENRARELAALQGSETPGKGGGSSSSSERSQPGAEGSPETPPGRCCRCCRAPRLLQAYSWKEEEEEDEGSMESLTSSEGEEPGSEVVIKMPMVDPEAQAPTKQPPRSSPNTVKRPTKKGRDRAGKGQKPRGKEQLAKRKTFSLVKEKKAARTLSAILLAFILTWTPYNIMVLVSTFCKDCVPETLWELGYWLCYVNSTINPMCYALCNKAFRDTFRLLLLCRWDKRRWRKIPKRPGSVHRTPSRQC
Description: PDSP Primary Binding target: CHRM1 - Compounds are tested at 10 uM concentration, plate are incubated at room temperature in the dark for 90 minutes. Reaction are stopped by vacuum filtration onto 0.3% polyethyleneimine soaked filter mats using Filtermate harvester. Scintilation cocktail is then melted onto microwave-dried filters on a hot plate and the radio activity is counted in Microbia counter.

[19] = target: 5-hydroxytryptamine receptor 5A (Homo sapiens) (UniProt P47898)
Description: PDSP Primary Binding target: HTR5A - Compounds are tested at 10 uM concentration, plate are incubated at room temperature in the dark for 90 minutes. Reaction are stopped by vacuum filtration onto 0.3% polyethyleneimine soaked filter mats using Filtermate harvester. Scintilation cocktail is then melted onto microwave-dried filters on a hot plate and the radio activity is counted in Microbia counter.

[20] = target: 5-hydroxytryptamine receptor 7 (Homo sapiens) (UniProt P34969)
Sequence of 5-hydroxytryptamine receptor 7 (Homo sapiens) (P34969 whole entry): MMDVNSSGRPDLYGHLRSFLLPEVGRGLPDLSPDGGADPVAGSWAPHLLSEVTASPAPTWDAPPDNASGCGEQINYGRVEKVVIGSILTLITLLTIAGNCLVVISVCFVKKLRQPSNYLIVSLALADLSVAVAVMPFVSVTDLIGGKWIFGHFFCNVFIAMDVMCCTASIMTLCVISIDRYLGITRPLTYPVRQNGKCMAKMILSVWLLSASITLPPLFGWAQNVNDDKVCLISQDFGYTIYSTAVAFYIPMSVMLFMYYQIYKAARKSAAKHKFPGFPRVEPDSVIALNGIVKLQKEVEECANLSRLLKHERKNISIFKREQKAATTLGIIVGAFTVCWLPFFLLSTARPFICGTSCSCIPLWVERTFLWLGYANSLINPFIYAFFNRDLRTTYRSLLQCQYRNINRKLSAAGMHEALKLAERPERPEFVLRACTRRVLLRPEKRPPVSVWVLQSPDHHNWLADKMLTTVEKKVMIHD
Description: PDSP Primary Binding target: HTR7 - Compounds are tested at 10 uM concentration, plate are incubated at room temperature in the dark for 90 minutes. Reaction are stopped by vacuum filtration onto 0.3% polyethyleneimine soaked filter mats using Filtermate harvester. Scintilation cocktail is then melted onto microwave-dried filters on a hot plate and the radio activity is counted in Microbia counter.

Sequence of D(3) dopamine receptor (Homo sapiens) (P35462 whole entry): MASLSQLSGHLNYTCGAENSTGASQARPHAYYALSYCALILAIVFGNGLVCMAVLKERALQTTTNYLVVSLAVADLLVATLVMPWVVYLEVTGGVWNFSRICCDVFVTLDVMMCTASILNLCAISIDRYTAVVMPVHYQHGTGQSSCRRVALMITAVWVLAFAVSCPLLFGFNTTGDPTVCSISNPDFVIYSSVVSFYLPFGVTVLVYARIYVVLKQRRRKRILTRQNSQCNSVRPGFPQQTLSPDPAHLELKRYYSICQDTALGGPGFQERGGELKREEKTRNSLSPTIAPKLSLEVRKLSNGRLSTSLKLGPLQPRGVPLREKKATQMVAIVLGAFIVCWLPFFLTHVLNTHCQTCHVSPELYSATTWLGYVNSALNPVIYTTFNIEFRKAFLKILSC
Sequence of D(1A) dopamine receptor (Homo sapiens) (P21728 whole entry): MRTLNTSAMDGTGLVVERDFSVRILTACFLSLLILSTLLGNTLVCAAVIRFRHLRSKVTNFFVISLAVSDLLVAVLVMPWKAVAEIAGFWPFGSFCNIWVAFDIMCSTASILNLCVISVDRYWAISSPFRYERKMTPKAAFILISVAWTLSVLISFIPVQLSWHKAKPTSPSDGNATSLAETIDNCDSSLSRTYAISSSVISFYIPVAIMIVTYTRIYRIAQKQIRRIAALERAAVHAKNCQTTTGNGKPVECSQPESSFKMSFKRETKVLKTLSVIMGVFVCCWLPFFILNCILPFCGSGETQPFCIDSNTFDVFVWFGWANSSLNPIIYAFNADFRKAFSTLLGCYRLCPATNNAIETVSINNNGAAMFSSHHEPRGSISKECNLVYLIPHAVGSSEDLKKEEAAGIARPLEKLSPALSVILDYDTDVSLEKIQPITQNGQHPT

Row | Compound | inhibition [1] | inhibition [2] | inhibition [3] | inhibition [4] | inhibition [5] | inhibition [6] | inhibition [7] | inhibition [8] | inhibition [9] | inhibition [10] | inhibition [11] | inhibition [12] | inhibition [13] | inhibition [14] | inhibition [15] | inhibition [16] | inhibition [17] | inhibition [18] | inhibition [19] | inhibition [20]
1 | N#Cc1ccc(NC(=O)Nc2ccccc2Br)c2nn[nH]c12 | -5.61% | 2.97% | 43.3% | 26.5% | 6.16% | -0.4% | 9.64% | 1.05% | 4.87% | 3.06% | 26.9% | 27.1% | 59.8% | 1.14% | 33.9% | – | – | – | – | –
2 | COc1ccc(CNC(=O)c2cc(-c3cncc(Cl)c3)cnc2-c2ccccn2)nc1OC | 88.7% | – | 7.89% | 23.7% | -8.5% | 17.4% | -2.32% | -4.47% | 12.9% | -2.53% | – | 30.5% | 36.3% | -5.62% | -6.96% | 0.56% | 16.4% | -7.31% | – | –
3 | CCC[C@H](Oc1cc(C)c(-n2cc(C(F)(F)F)cn2)c(C)c1)c1ccc(C(=O)NCCC(=O)O)cc1 | 4.78% | 20.2% | – | -5.66% | -2.47% | 8.21% | 1.84% | 12.2% | 44% | 11.1% | -0.8% | 11% | – | – | – | 8.94% | 2.23% | 28% | 8.62% | -2.87%
4 | Cc1cc([C@@H](C)Nc2cccc(-c3cc(C)c(C(=O)N[C@@H](C)C(=O)O)c(C)c3)c2)ccc1Cl | 5.15% | 14% | 58.6% | -8.16% | 3.66% | 7.32% | 20% | 12.1% | 5.92% | 10% | -0.82% | 16.5% | 56.6% | – | 54.5% | 11.3% | – | 21.2% | 11.6% | 2.27%
5 | O=C(O)C1CN(Cc2ccc(OCc3ccc(Cl)c(Cl)c3)cc2)C1 | 55.1% | – | 39.5% | -9.84% | 13.2% | – | 76.9% | – | -4% | -4.42% | – | 1.29% | 31.9% | – | 10.2% | -0.54% | – | 2.35% | 23.4% | -9.54%
6 | Cc1cn2cc(CC(=O)N3CCC4(CC3)CN(Cc3ccc(-n5nccn5)cc3Cl)C4)nc2s1 | -2.36% | -5.26% | 71.1% | 11.6% | 13% | 25.1% | 52.1% | – | -2.62% | 3.15% | -3.75% | 21.4% | 44.2% | 4.85% | 19.4% | -6.22% | 43.3% | 51.1% | 8.61% | –
7 | c1cc(CN2CCCNCCNCCCNCC2)ccc1CN1CCCNCCNCCCNCC1 | 0.83% | – | 37.2% | 22.7% | -6.66% | -1.67% | 15.3% | 4.06% | 33.9% | 80.5% | – | 13.8% | 53.6% | 1.3% | – | -9.28% | 22.5% | 62.3% | – | –
8 | Cc1ccc(O)c([C@H](CCN(C(C)C)C(C)C)c2ccccc2)c1 | 11.4% | -4.98% | 46.2% | 20.8% | -6.09% | 42.6% | 90.9% | 25.3% | – | 4.65% | – | -3.49% | 16.2% | 41.2% | 32.5% | 0.77% | 96.9% | 99.2% | – | –
9 | N[C@H](C(=O)O)c1ccc(C(=O)O)c(C(=O)O)c1 | 5.29% | – | 62.5% | 69.3% | 8.99% | 13.7% | 6.26% | -2.1% | -8.66% | 11.6% | 13.4% | 29.8% | 44% | 19.2% | – | – | – | – | -7.78% | –
10 | NC(=O)[C@@H]1CCCN1C(=O)[C@H](Cc1c[nH]cn1)NC(=O)[C@@H]1CCC(=O)N1 | 23.5% | -1.35% | 4.54% | 5.26% | – | -4.39% | 34.1% | 7.27% | -5.34% | 10.9% | -0.43% | 45.1% | 40.9% | – | 18.6% | -7.07% | 35% | -3.59% | 5.27% | -8.14%
11 | O=c1ccn([C@@H]2O[C@H](COP(=O)(O)OP(=O)(O)OP(=O)(O)O)[C@@H](O)[C@H]2O)c(=O)[nH]1 | 46.4% | 45.1% | 22.3% | 13.8% | 26.3% | 90.1% | 35.3% | 7.75% | -2.1% | 5.87% | 9.66% | 27.4% | -7.04% | – | -4.24% | 2.2% | 34% | – | 16.9% | 3.3%
